Results on 1 compound are retold here after patent US4435385A, “N-Acyl-polypeptides and processes for the production thereof” (Sandoz Ltd., priority 1981, dated 1984).

This test deals with gastric secretion. In words: TEST II: pentagastrin-stimulated gastric secretion in pylorus-ligated rats. Conditions: male rats, i.m., 100 μg/kg pentagastrin s.c., 30 mins; dose for 50% inhibition vs untreated controls. Format: in vivo, rat. The method, then: Male rats (220-280 g) are kept in the laboratory in individual cages for several days (14 hours light/day) with 48 hours fasting (but free access to water) immediately prior to the experiment. At the start of the experiment the pylorus is ligated under ether anaesthesia and 100 μg/kg pentagastrin are injected s.c. to stimulate gastric secretion. The test compounds are injected simultaneously i.m. 30 mins. later the animals are sacrificed, the volume of gastric juice measured and the acid concentration estimated (titration with thymol blue). The acid output is calculated and the percent inhibition estimated in relation to untreated controls.

Turning to `C[C@H](N)C(=O)NCC(=O)N[C@H]1CSSC[C@@H](C(=O)O)NC(=O)[C@H](CO)NC(=O)[C@H]([C@@H](C)O)NC(=O)[C@H](Cc2ccccc2)NC(=O)[C@H]([C@@H](C)O)NC(=O)[C@H](CCCCN)NC(=O)[C@H](Cc2c[nH]c3ccccc23)NC(=O)[C@H](Cc2ccccc2)NC(=O)[C@H](Cc2ccccc2)NC(=O)[C@H](CC(N)=O)NC(=O)[C@H](CCCCN)NC1=O` [somatostatin], the “ID50 in TEST II for acid concentration” value worked out at 0.035 mg/kg.
